In US7550133B2, “Respiratory drug condensation aerosols and methods of making and using them” (Alexza Pharmaceuticals, Inc., priority 2002, dated 2009):

Experiments:
[1] = Volatilization Using Stainless Steel Foil; HPLC analysis of the condensation aerosol; format: physicochemical; details: for Purity of the aerosol (purity analysis): single drug on stainless steel foil substrate (5 cm^2), film thickness about 0.4-1.2 μm, capacitor charged to 15 V; for Purity of each drug in the aerosol from a mixture of albuterol and flunisolide: about 0.20 mg flunisolide and about 0.16 mg albuterol co-coated on stainless steel foil (5 cm^2), film about 0.64 μm, capacitor 15.5 V
Text: Strips of clean 304 stainless steel foil (0.0125 cm thick, Thin Metal Sales) having dimensions 1.3 cm by 7.0 cm were dip-coated approximately 4.5 to 5 cm on the strip with an asthma drug solution prepared as described above. The foil was then partially dipped three times into solvent to rinse drug off of the last 2-3 cm of the dipped end of the foil. Alternatively, the drug-coating from this bottom 2-3 cm area was carefully taken off with a razor blade. The final coated area was between 2.0-2.5 cm by 1.3 cm on both sides of the foil, for a total area of between 5.2-6.5 cm^2. Foils were prepared as stated above and then some were extracted with methanol or acetonitrile as standards. The amount of drug was determined from quantitative HPLC analysis. Using the known drug-coated surface area, the thickness was then calculated.
After drying, the drug-coated foil was placed into a volatilization chamber constructed of a Delrin block (the airway) and brass bars, which served as electrodes. The dimensions of the airway were 1.3 cm high by 2.6 cm wide by 8.9 cm long. The drug-coated foil was placed into the volatilization chamber such that the drug-coated section was between the two sets of electrodes. After securing the top of the volatilization chamber, the electrodes were connected to a 1 Farad capacitor (Phoenix Gold). The back of the volatilization chamber was connected to a two micron Teflon® filter (Savillex) and filter housing, which were in turn connected to the house vacuum. Sufficient airflow was initiated (typically 30 L/min=1.5 m/sec), at which point the capacitor was charged with a power supply, typically to between 14-17 Volts.
The circuit was closed with a switch, causing the drug-coated foil to resistively heat to temperatures of about 280-430° C. (as measured with an infrared camera (FLIR Thermacam SC3000)), in about 200 milliseconds. After the drug had vaporized, airflow was stopped and the Teflon® filter was extracted with acetonitrile. Drug extracted from the filter was analyzed generally by HPLC UV absorbance generally at 225 nm using a gradient method aimed at detection of impurities to determine percent purity. Also, the extracted drug was quantified to determine a percent yield, based on the mass of drug initially coated onto the substrate. A percent recovery was determined by quantifying any drug remaining on the substrate and chamber walls, adding this to the quantity of drug recovered in the filter and comparing it to the mass of drug initially coated onto the substrate.

[2] = Volatilization from stainless steel cylinder (flashbar); HPLC analysis of the condensation aerosol; format: physicochemical; details: drug dip coated on stainless steel flashbar, capacitors 20.5 volts, heated to about 400° C. within about 200 milliseconds, 15 L/min room air
Text: A hollow stainless steel cylinder with thin walls, typically 0.12 mm wall thickness, a diameter of 13 mm, and a length of 34 mm was cleaned in dichloromethane, methanol, and acetone, then dried, and fired at least once to remove any residual volatile material and to thermally passivate the stainless steel surface. The substrate was then dip-coated with a drug coating solution (prepared as described above). The dip-coating was done using a computerized dipcoating machine to produce a thin layer of drug on the outside of the substrate surface. The substrate was lowered into the drug solution and then removed from the solvent at a rate of typically 5-25 cm/sec. (To coat larger amounts of material on the substrate, the substrate was removed more rapidly from the solvent or the solution used was more concentrated.) The substrate was then allowed to dry for 30 minutes inside a fume hood. If either dimethylformamide (DMF) or a water mixture was used as a dip-coating solvent, the substrate was vacuum dried inside a desiccator for a minimum of one hour. The drug-coated portion of the cylinder generally has a surface area of 8 cm^2. By assuming a unit density for the drug, the initial drug coating thickness was calculated. The amount of drug coated onto the substrates was determined in the same manner as that described above: the substrates were coated, then extracted with methanol or acetonitrile and analyzed with quantitative HPLC methods, to determine the mass of drug coated onto the substrate.
The drug-coated substrate was placed in a surrounding glass tube connected at the exit end via Tygon® tubing to a filter holder fitted with a Teflon® filter (Savillex). The junction of the tubing and the filter was sealed with paraffin film. The substrate was placed in a fitting for connection to two 1 Farad capacitors wired in parallel and controlled by a high current relay. The capacitors were charged by a separate power source to about 18-22 Volts and most of the power was channeled to the substrate by closing a switch and allowing the capacitors to discharge into the substrate. The substrate was heated to a temperature of between about 300-500° C. in about 100 milliseconds. The heating process was done under an airflow of 15 L/min, which swept the vaporized drug aerosol into a 2 micron Teflon® filter.
After volatilization, the aerosol captured on the filter was recovered for quantification and analysis. The quantity of material recovered in the filter was used to determine a percent yield, based on the mass of drug coated onto the substrate. The material recovered in the filter was also analyzed generally by HPLC UV absorbance at typically 225 nm using a gradient method aimed at detection of impurities, to determine purity of the thermal vapor. Any material deposited on the glass sleeve or remaining on the substrate was also recovered and quantified to determine a percent total recovery ((mass of drug in filter+mass of drug remaining on substrate and glass sleeve)/mass of drug coated onto substrate). For compounds without UV absorption GCMS or LC/MS was used to determine purity and to quantify the recovery. Some samples were further analyzed by LC/MS to confirm the molecular weight of the drug and any degradants.
About 1.2 mg of albuterol was dip coated onto the stainless steel surface of a flashbar apparatus. (The flashbar is a cylinder 3.5 cm long and 1.3 cm in diameter consisting of a hollow tube of 0.005″ thick stainless steel). Brass electrodes were connected to either end of the steel cylinder. The coated flashbar was secured in an electrical mount, which connected to two 1.0 Farad capacitors in parallel. An airway was provided by a 2 cm diameter glass sleeve placed around the flashbar. 15 L/min of room air were pulled by a house vacuum through the vaporization chamber and a filter housing, which contained a two-micron Teflon filter. […]

Purity of the aerosol (purity analysis) [1] | Purity of the aerosol (purity analysis by HPLC) [2] | Purity of each drug in the aerosol from a mixture of albuterol and flunisolide [1] | Compound
99.03% |  |  | CC(C)C(=O)OCC(=O)[C@@]12O[C@H](C3CCCCC3)O[C@@H]1C[C@H]1[C@@H]3CCC4=CC(=O)C=C[C@]4(C)[C@H]3[C@@H](O)C[C@@]12C [ciclesonide]
94.9% | 97.6% | 94.5% | flunisolide
 | 99.3% |  | CC(C)(C)NCC(O)c1cc(O)cc(O)c1 (centres unmarked) [terbutaline]
99.9% |  |  | CC(C)Cn1c(=O)n(C)c(=O)c2[nH]cnc21 [IBMX]
 | 94.4% | 97.2% | CC(C)(C)NCC(O)c1ccc(O)c(CO)c1 (centres unmarked) [albuterol]
99.8% |  |  | CCCn1c(=O)c2[nH]c(C3CCCC3)nc2n(CCC)c1=O [CPX]
 | 70.5% |  | CCCC1O[C@@H]2C[C@H]3[C@@H]4CCC5=CC(=O)C=C[C@]5(C)[C@H]4[C@@H](O)C[C@]3(C)[C@]2(C(=O)CO)O1 (some centres unmarked) [budesonide]
 | 99.1% |  | CC(C)NCC(O)c1cc(O)cc(O)c1 (centres unmarked) [metaproterenol]
91.6% |  |  | CCC(=O)O[C@]1(C(=O)SCF)[C@H](C)C[C@H]2[C@@H]3C[C@H](F)C4=CC(=O)C=C[C@]4(C)[C@@]3(F)[C@@H](O)C[C@@]21C [fluticasone propionate]
 | about 92.0% |  | CC1(C)O[C@@H]2C[C@H]3[C@@H]4CCC5=CC(=O)C=C[C@]5(C)[C@@]4(F)[C@@H](O)C[C@]3(C)[C@]2(C(=O)CO)O1 [triamcinolone acetonide]
 | about 99.5% |  | Cn1c(=O)c2[nH]cnc2n(C)c1=O [theophylline]
